The record followed here is US6271369A, “Chimeric molecules targeted to viral RNAs” (priority 1997, dated 2001).

“Also recorded” adds a separate entry of the source.

Series [1] relates to 2-5A-dependent RNase. Nature of the series: Radiobinding (nitrocellulose filter) competition assay for 2-5A-dependent RNase in mouse liver extract. The format is binding. As for the experimental part:
SEQ ID NO:1, SEQ ID NO:2, Chimeric Molecule 3, and Chimeric Molecule 4 were tested for their ability to bind to 2-5A-dependent RNase in vitro. The affinity of these 2-5A:AS constructs for 2-5A-dependent RNase was established with a highly specific radiobinding assay. This radiobinding assay measured the ability of 2-5A or 2-5A analogs to compete with a ^32 P-labeled 2-5A probe, ppp5'A2'p5'A2'p5'A2'p5'A3'-[^32 p]p5'C3'p, for binding to 2-5A-dependent RNase. The nitrocellulose filter binding assay of Knight et al. (Methods Enzymol. , 79: 216 (1981)) was used to measure the concentrations of 2-5A or the chimeric 2-5A:AS molecule required to compete with the radiolabeled probe, ppp5'A2'-p5'A2'p5'A2'p5A3'[^32 P]p5C3'p, for binding to 2-5A-dependentRNase in a mouse liver extract.
FIGS. 3A and 3B show the relative affinities of SEQ ID NO:1 (.tangle-solidup.) and 2-5A (ppp5'A2'p5'A2'p5'A) (.circle-solid.) for 2-5A-dependent RNase. A measure of 100% binding was found in the absence of any unlabeled oligonucleotide. The data for SEQ ID NO:1 and 2-5A in these figures represent the means and standard deviations from 6 and 7 assays, respectively.

Series [2] has as its system TAR:vif RNA. Put plainly: Cleavage of control TAR:vif RNA (no oligo(rA) tract) in Daudi cell extract. The class given is biochemical, HIV-1. The settings on record: 0.2 or 1.0 μM. From the text:
To determine the ability of the 2-5A:AS chimeric molecule SEQ ID NO:1 to induce site-directed RNA cleavage, a target RNA was constructed having an internal 3',5'-oligo(rA) tract. Hybridization between the (dT18) in SEQ ID NO:1 with the oligo(rA) in the target RNA attracts 2-5A-dependent RNase to the target RNA, resulting in a highly specific cleavage event. The experimental target, TAR:A25 :vif RNA, was produced in vitro from a pSP64-derived plasmid containing a partial cDNA for the HIV vif protein interrupted with 25 adenylyl residues. A control TAR:vif RNA was constructed with the A25 tract deleted. These RNA species, which lack 3'-poly(rA) tails, were radiolabeled at their 3'-termini with [5'-^32 p)-pCp by T4 RNA ligase and gel purified prior to the assay. […]
Daudi cell extracts prepared with dounce homogenization were made by the well known method of Wreschner, et al. in a buffer containing 40mM KCl; 10 mM HEPES pH 7.5; 2.5mM magnesium acetate; 0.5mM ATP; 2.5% glycerol and 2.0mM mercaptoethanol. […] Cleavage products were analyzed in 6% polyacrylamide/8M urea gels (30×40×0.04cm).
This property of the 2-5A:AS molecule was determined by experiments employing unmodified 2-5A. […]

In series [3] the test system is TAR:A25 :vif RNA. Put plainly: Site-directed cleavage of TAR:A25:vif RNA in Daudi cell extract. The format is biochemical, HIV-1. The text has this: To determine the ability of the 2-5A:AS chimeric molecule SEQ ID NO:1 to induce site-directed RNA cleavage, a target RNA was constructed having an internal 3',5'-oligo(rA) tract. Hybridization between the (dT18) in SEQ ID NO:1 with the oligo(rA) in the target RNA attracts 2-5A-dependent RNase to the target RNA, resulting in a highly specific cleavage event. The experimental target, TAR:A25 :vif RNA, was produced in vitro from a pSP64-derived plasmid containing a partial cDNA for the HIV vif protein interrupted with 25 adenylyl residues. A control TAR:vif RNA was constructed with the A25 tract deleted. These RNA species, which lack 3'-poly(rA) tails, were radiolabeled at their 3'-termini with [5'-^32 p)-pCp by T4 RNA ligase and gel purified prior to the assay.
The 2-5A:AS strategy for site-directed RNA cleavage was next tested in a cell-free system consisting of a postribosomal supernatant fraction of human lymphoblastoid Daudi cells.
Daudi cell extracts prepared with dounce homogenization were made by the well known method of Wreschner, et al. in a buffer containing 40mM KCl; 10 mM HEPES pH 7.5; 2.5mM magnesium acetate; 0.5mM ATP; 2.5% glycerol and 2.0mM mercaptoethanol. The extract used in the RNA cleavage assays was the supernatant of a 100,000 ×g centrifugation of cell extract. About 100 nM radiolabeled RNA (approximately 25,000 counts/min/assay) was incubated with oligonucleotides at 30° C. in extract (10μl) supplemented with 75mM KCl in a final volume of 20 μl. Reactions were terminated and the RNA was extracted with phenollchloroform. The RNA was then ethanol precipitated and redissolved in sterile water and an equal volume of formamide gel sample buffer. Cleavage products were analyzed in 6% polyacrylamide/8M urea gels (30×40×0.04cm).
The cleavage reaction was performed after adding SEQ ID NO:l and purified radiolabeled TAR:A25 :vif RNA to the Daudi cell extract (without preannealing) followed by incubation at 30° C. In the absence of added oligonucleotide, the TAR:A25 :vif RNA was degraded with a half-life of about 90 minutes.
An experiment was conducted to analyze (A) the in vitro transcription of AccI restriction endonuclease-digested plasmids containing TAR:A25 :vif and TAR:vif sequences and (B) the specific cleavage of TAR:A25 ;vif RNA induced by SEQ ID NO:1 (100nM) in extracts of Daudi cells as a function of time. The breakdown of TAR:A25 :vif RNA (intact RNA) was proportional to the appearance of the specific cleavage product. Data was obtained by running a gel with the products of the experiment and then making an autoradiogram of the dried gel. The autoradiogram was then subjected to image analysis with a video camera (Sierra Scientific) and the QUICKCAPTURE.COPYRGT. (Marlboro, Mass.) and IMAGE.COPYRGT. computer programs run on a MACINTOSH IIci.cndot. computer. The percentage of RNA shown in FIG. 6 was based on the sum of the intact RNA and the specific RNA cleavage product.
Cleavage of TAR:A25 :vif RNA (about 100 nM) as a function of SEQ ID NO:1 concentration was also measured. The cleavage reaction was allowed to continue for 30 minutes in Daudi cell extract at 30° C. The levels of the specific cleavage products (relative peak areas) were determined from an autoradiogram as described in relation to FIG. 6 above. The results shown in FIGS. 6 and 7 were reproduced three times.

Setting [4] is: about 100 nM RNA, 30 minutes, 30° C., FIG. 7.

As for “p5'A2'(p5'A2')2 P5'A2'p1[OCH2 (CH2)2 CH2 O]4p1[OCH2 (CH2)2 CH2 O]4p5'pdT3'(p5'dt3')16 p5'dt (AAAATTTTTTTTTTTTTTTTTT; chemistry not fully specified) [SEQ ID NO:1]”, the “IC50 / ability to bind 2-5A-dependent RNase compared with unmodified 2-5A” value in series [1] (compared with ppp5'A2'p5'A2'p5'A, FIG. 3A) was “very little, if any, decrease in the IC50”. The “binding affinity to 2-5A-dependent RNase when annealed to complementary sequence” value in series [1] (mixed with excess poly(A), FIG. 3B) was “no significant change in the binding affinity”. Besides, the “specific cleavage in TAR:vif RNA lacking the oligo(rA) tract” value in series [2] was “failed to yield a specific cleavage”. In series [3] (100 nM, Daudi extract, 30° C., FIG. 6), the “incubation time for 50% breakdown to the specific cleavage product” value was 20 min. The “incubation time after which breakdown to cleavage product could be seen clearly” value in series [3] (Daudi extract, 30° C.) was 5 min. Besides, the “specific cleavage of TAR:A25:vif RNA” value in series [3] (Daudi extract, 30° C., 30 minutes) is recorded as “nearly quantitative conversion of the intact RNA to a specific cleavage product; also recorded: Specific cleavage of the substrate was observed”. Moreover, in series [3] (setting [4]), the “lowest concentration at which cleavage reaction was observed” value is 25 nM and the “optimal concentration for the cleavage reaction” value stood at 250 nM. In addition, in series [3] (versus no added oligonucleotide (half-life about 90 minutes)), the “increase of rate of breakdown of TAR:A25:vif RNA” value is listed as “more than four-fold”.
